Legend:
[1] = Surfactant solubility in hydrofluoroether (HFE) solvents by visual clarity; format: physicochemical
Method: A series of C4F9SO2N-based fluorochemical surfactants were examined to determine their solubility in various hydrofluoro ether (HFE) solvents, including four segregated HFEs (Novec 7100, 7200, 7300, and 7500 available from 3M Company, St Paul, Minn.), one non-segregated HFE (PF-7600 available from 3M Company), and one HFE-Alcohol blend (Novec 71IPA available from 3M Company). Solubility was determined by preparing mixtures of each surfactant in the solvent at various concentrations and determining solubility at each concentration by visual inspection based on the clarity of the solutions after thorough mixing at room temperature. Surfactants that were not completely soluble at a given concentration produced hazy mixtures, whereas surfactants that were completely soluble at a given concentration produced clear homogeneous solutions with no haze. The highest concentration of each surfactant to give a clear, homogeneous solution in each HFE solvent (expressed as wt % surfactant dissolved in HFE solvent) was taken as the maximum solubility.

[2] = Cleaning performance: % particle removal from heavily soiled CMOS sensors
Method: A study was conducted using Novec 7100 and Novec 71IPA base solvents with and without the soluble surfactants identified above to determine the impact of dissolved surfactant on cleaning performance of the fluids. In some cases a single surfactant was employed. In other cases a mixture of two surfactants was employed. In all cases the total concentration of fluorochemical surfactant employed was 0.20 wt % (or 2000 ppm) in the base fluid. Cleaning results were compared to pure Novec fluid controls containing no surfactant. The cleaning trials were performed on heavily soiled CMOS sensors containing a high pixel density. These sensors are known to be extremely difficult to clean such that they are essentially free of (particle contaminants.
A precision solvent cleaning system (SK-04Y-6008 customized cleaning system from YMPT, Thailand) was used to clean the CMOS sensors using the process outlined below.
The cleaning performance of each cleaning fluid composition was judged based on the percentage of particles originally present on the CMOS surface that were removed by the cleaning fluid after completion of the cleaning process. The percentage of particles removed was determined by optical microscopy inspection of the CMOS sensors before and after cleaning.
The original (heavily soiled) CMOS sensor was first inspected using an optical microscope and a series of Pre-Clean images were recorded. The CMOS sensor was then cleaned in the precision cleaning system using the process described above and the proscribed solvent/surfactant combination. After cleaning, the CMOS sensor was inspected again by optical microscopy and a Post-Clean image recorded to determine particle counts remaining on the sensor. In this way, the % removal of particles after cleaning of CMOS sensors was determined.

[3] = Novec 71IPA, room temperature (23° C.)
[4] = Novec 7100, room temperature (23° C.)
[5] = Novec 7200, room temperature (23° C.)
[6] = Novec 7300, room temperature (23° C.)
[7] = Novec 7500, room temperature (23° C.)
[8] = PF-7600, room temperature (23° C.)
[9] = Novec 71IPA, total surfactant 0.20 wt %

Row | Compound | Max. Solubility [1, 3] | Max. Solubility [1, 4] | Max. Solubility [1, 5] | Max. Solubility [1, 6] | Max. Solubility [1, 7] | Max. Solubility [1, 8] | % Removal (Percent Particle Removal) [2, 9] | % Removal (Percent Particle Removal) ([2]; Novec 7100, surfactant 0.2 %) | melting point | solubility in HFE solvents ([1]; room temperature)
1 | O=S(=O)(NCCOCCO)C(F)(F)C(F)(F)C(F)(F)C(F)(F)F [H-FBS(EE) (III), C4F9SO2N(H)CH2CH2OCH2CH2OH] | >10 wt % | >10 wt % | >10 wt % | >10 wt % | >10 wt % | >10 wt % | 50-80% | 50-80% | 35.7 °C | –
2 | O=S(=O)(N(CCO)CCOCCO)C(F)(F)C(F)(F)C(F)(F)C(F)(F)F [FBSE(EE) (V), C4F9SO2N(CH2CH2OCH2CH2OH) (CH2CH2OH)] | >10 wt % | 1.5 wt % | 0.8 wt % | 0.9 wt % | 0.2 wt % | >10 wt % | 90-100% | 90-100% | 45.1 °C | –
3 | CC(O)CN(CCO)S(=O)(=O)C(F)(F)C(F)(F)C(F)(F)C(F)(F)F (stereo not drawn) [FBSEP (VIII), C4F9SO2N(CH2CH2OH)CH2CH(CH3)OH] | >10 wt % | 4.0 wt % | – | 1.4 wt % | – | >10 wt % | – | – | – | improved solubility
4 | C4F9SO2N(CH3)(CH2CH2O)7CH3 [FC-4171 (XI), reference compound] | >10 wt % | >10 wt % | >10 wt % | 0.5 wt % | 0.1 wt % | >10 wt % | 50-80% | 50-80% | – | –
5 | O=S(=O)(N(CCOCCO)CCOCCO)C(F)(F)C(F)(F)C(F)(F)C(F)(F)F [FBS(EE)2 (IV), C4F9SO2N(CH2CH2OCH2CH2OH)2] | >10 wt % | >10 wt % | 0.2-0.5 wt % | 0.2-0.3 wt % | 0.2 wt % | 8-9 wt % | 50-80% | 50-80% | – | –
6 | O=S(=O)(NCCO)C(F)(F)C(F)(F)C(F)(F)C(F)(F)F [H-FBSE (X), C4F9SO2NH(CH2CH2OH)] | >10 wt % | 0.21 wt % | 0.16 wt % | 0.06 wt % | – | 1.5 wt % | 50-80% | – | – | –
7 | O=S(=O)(N(CCO)CCO)C(F)(F)C(F)(F)C(F)(F)C(F)(F)F [FBSEE (IX), C4F9SO2N(CH2CH2OH)2] | 8.1 wt % | 0.06 wt % | 0.04 wt % | 0.03 wt % | – | 0.6 wt % | 90-100% | – | – | –

— US10017713B2, “Fluorinated surfactant containing compositions” (3M INNOVATIVE PROPERTIES COMPANY, priority 2014, dated 2018)
